Measured values reported in patent publication US10844064B2, “sGC stimulators” (Cyclerion Therapeutics, Inc., priority 2014, dated 2020).
Where “and” joins values, the source holds several entries; their conditions need not be identical. Equal values may be shown once.

Assays:
[1] = test system: lambs with acute pulmonary hypertension; details: inhaled microparticles, awake lambs, cited from earlier work; for pulmonary vasodilation: U-46619 infusion to mean pulmonary arterial pressure 35 mm Hg; for effect on mean arterial pressure / transpulmonary cGMP release / systemic arterial oxygenation: U-46619 infusion
obese mice = details: cited from earlier work
[2] = biological target: T1, soluble guanylate cyclase (sGC) (Homo sapiens, UniProt Q02108+Q02153); assay: sGC-HEK-cGMP assay with LC/MS detection (Example 2A); assay type: cell-based; details: HEK293 cells, 10 μM DETA-NONOate, 20 min; concentration eliciting 50% of high control response (30 μM Compound Y); read-out: Absolute EC50 (nM) - binned
T1 construct: endogenously expressing soluble guanylate cyclase (sGC); endogenous in cells; host or cells: HEK293
T1 sequence (Q02108 1-690): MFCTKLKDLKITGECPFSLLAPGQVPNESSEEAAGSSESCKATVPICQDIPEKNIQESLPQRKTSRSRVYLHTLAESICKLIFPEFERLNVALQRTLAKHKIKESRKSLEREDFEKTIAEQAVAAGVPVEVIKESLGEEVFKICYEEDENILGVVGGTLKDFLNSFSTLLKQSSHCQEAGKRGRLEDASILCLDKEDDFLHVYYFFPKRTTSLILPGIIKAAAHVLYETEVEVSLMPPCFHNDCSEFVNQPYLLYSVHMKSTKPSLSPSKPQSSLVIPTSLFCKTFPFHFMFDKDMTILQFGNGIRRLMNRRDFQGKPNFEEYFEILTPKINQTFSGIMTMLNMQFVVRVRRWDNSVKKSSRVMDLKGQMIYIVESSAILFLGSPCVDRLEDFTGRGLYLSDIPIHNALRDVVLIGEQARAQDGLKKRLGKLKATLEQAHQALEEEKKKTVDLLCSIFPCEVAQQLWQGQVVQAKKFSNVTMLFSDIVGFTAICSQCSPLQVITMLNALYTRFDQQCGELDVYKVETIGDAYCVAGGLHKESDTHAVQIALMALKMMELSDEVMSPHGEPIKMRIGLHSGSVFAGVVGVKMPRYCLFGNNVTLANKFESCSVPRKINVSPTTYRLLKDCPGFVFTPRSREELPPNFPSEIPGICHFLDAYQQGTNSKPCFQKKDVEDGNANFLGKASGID
T1 sequence (Q02153 1-619): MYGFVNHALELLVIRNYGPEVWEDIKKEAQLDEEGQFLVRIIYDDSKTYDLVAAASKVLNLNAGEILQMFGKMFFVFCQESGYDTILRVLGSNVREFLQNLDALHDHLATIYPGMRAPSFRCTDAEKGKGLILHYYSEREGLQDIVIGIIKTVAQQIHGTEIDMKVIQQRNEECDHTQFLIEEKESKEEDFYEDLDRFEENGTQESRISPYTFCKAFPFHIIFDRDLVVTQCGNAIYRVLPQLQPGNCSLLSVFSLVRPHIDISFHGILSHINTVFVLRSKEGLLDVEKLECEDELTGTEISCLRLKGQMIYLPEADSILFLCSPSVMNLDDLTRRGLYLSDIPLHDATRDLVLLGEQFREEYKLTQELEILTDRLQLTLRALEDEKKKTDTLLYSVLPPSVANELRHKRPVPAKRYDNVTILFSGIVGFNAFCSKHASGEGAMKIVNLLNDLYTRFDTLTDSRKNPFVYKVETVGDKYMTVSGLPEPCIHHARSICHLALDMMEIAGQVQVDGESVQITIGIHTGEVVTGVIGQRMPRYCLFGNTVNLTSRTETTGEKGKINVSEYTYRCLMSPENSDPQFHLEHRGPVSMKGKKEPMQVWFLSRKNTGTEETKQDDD
Protocol: Human embryonic kidney cells (HEK293), endogenously expressing soluble guanylate cyclase (sGC), were used to evaluate the activity of test compounds. Compounds stimulating the sGC enzyme should cause an increase in the intracellular concentration of cGMP. HEK 293 cells were seeded in Dulbecco's Modification of Eagle's Medium supplemented with fetal bovine serum (10% final) and penicillin (100 U/mL)/streptomycin (100 μg/mL) in a 50 μL, volume at a density of 1.5×10^4 cells/well in a poly-D-lysine coated 384 well flat bottom plate. Cells were incubated overnight at 37° C. in a humidified chamber with 5% CO2. Medium was aspirated and cells were washed with 1× Hank's Buffered Saline Salt Solution (50 μL). Cells were then incubated for 15 minutes at 37° C. with 50 μL of a 0.5 mM 3-isobutyl-1-methylxanthine (IBMX) solution. Test article and Diethylenetriamine NONOate (DETA-NONOate) solutions (x μM concentration for test article solution and 10 μM concentration for DETA-NONOate solution; wherein x is one of the following concentrations);
were then added to the assay mixture and the resulting mixture incubated at 37° C. for 20 minutes. After the 20 minute incubation, the assay mixture was aspirated and 10% acetic acid containing 150 ng/mL+3-cGMP (internal standard for LCMS) (50 μL) was added to the cells. The plate was incubated at 4° C. for 30 minutes in the acetic acid solution to stop the reaction and lyse the cells. The plates were then centrifuged at 1,000 g for 3 minutes at 4° C. and the supernatant transferred to a clean reaction plate for LCMS analysis.
cGMP concentrations were determined from each sample using the LCMS conditions below (Table 2) and calculated standard curve. The standard curve was prepared in 10% acetic acid with 150 ng/mL+3cGMP (isotopically labelled cGMP with a weight 3 units higher than wild type) with the following final concentrations of cGMP in ng/mL: 1, 5, 10, 50, 100, 250, 500, 1000, 2000.
(§1) Data were normalized to a high control using the following equation: 100*(Sample—Low Control)/(High Control—Low Control), where the low control is the average of 16 samples treated with 1% DMSO, and the high control is the average of 16 samples treated with 30 μM of Compound Y depicted below. Data were fit using a 4-parameter fit (log(agonist) vs. response variable slope) using GraphPad Prism Software v.5. n=2 for all compounds. […] Compounds failing to elicit a minimum response of 50% are reported as >30 μM. For compounds run in duplicate or n higher than 2, the result herein given is the geometric mean of the several results obtained.

sGC enzyme = biological target: T2, sGC enzyme (Homo sapiens, UniProt Q02108+Q02153); assay: cGMP GloSensor cell-based assay, 384-well format (Example 2B); details: HEK293 GloSensor 40F cGMP cells, 10 μM DETA-NONOate; 50% of high control response (Compound Y); read-out: sGC_HEK_GloSensor EC50/IC50 Abs (Norm) (nM) Binned
T2 construct: host or cells: HEK293 expressing GloSensor 40F cGMP
T2 sequence (Q02108 1-690): T1 sequence (Q02108 1-690)
T2 sequence (Q02153 1-619): T1 sequence (Q02153 1-619)
Protocol: as §1
Human embryonic kidney cells (HEK293) cells expressing GloSensor™ 40F cGMP (Part No: CS182801, Promega) were used to evaluate the activity of test compounds. The luminescent biosensors (engineered luciferase) that were incorporated into these cells detect cGMP formed by the compounds stimulating the sGC enzyme and emit luminescence.
cGMP GloSensor cells were maintained in Dulbecco's Modification of Eagle's Medium (DMEM) supplemented with fetal bovine serum (FBS) (10% final) and hygromycine (200 μg/ml). The day before assay, cells were plated in DMEM with 10% FBS in a 50 μL volume at a density of 1.5×10^4 cells/well in a poly-D-lysine coated 384-well flat white-bottom plate (Corning Cat No 35661). Cells were incubated overnight at 37° C. in a humidified chamber with 5% CO2. The next day, medium was removed and cells were replaced with 40 μl/well of GloSensor™, […] (Promega Cat No E1291). Cells were treated for 90 minutes at 25° C. to allow the substrate to equilibrate in the cells. Test compounds and Diethylenetriamine NONOate (DETA-NONOate) was diluted to […] in serum-free CO2 independent medium and serally diluted at 4× dilutions to create 5× dose curve from which 10 ul was added to the wells (x uM concentration for test compound solution and 10 μM concentration for DETA-NONOate solution; wherein x is one of the following final concentrations).
For the kinetics studies, luminescense was measured right away for 0.2 sec per well with Envision (Perkin Elmer model No). For endpoint SAR screening, data were collected after 55 min incubation at room temperature.
Data analysis was carried out as indicated above in Example 2A.

[3] = test system: Guinea pig tracheal smooth muscle; assay: Electrical field stimulated guinea pig tracheal smooth muscle contraction (ex vivo); details: sub-maximal EFS, cumulative dose response curve, three animals pooled; 95% Cl 0.78-0.94; read-out: IC50 (inhibition of EFS-induced baseline contraction)
Excerpt: Electrical Field Stimulated Guinea Pig Tracheal Smooth Muscle In Vitro (ex vivo) Model for the Assessment of Bronchodilation.
Animals: Guinea pig, Dunkin Hartley, male, Full barrier-bred and certified free of specific micro-organisms on receipt 525-609 g on the experimental day, Harlan UK Ltd. Guinea pigs are housed in a group of 4 in solid-bottomed cages with Gold Flake bedding in a controlled environment (airflow, temperature and humidity). Food (FD1, Special Diet Services) and water are provided ad libitum.
On each experimental day, a guinea pig is killed by exposure to a rising concentration of CO2 and the trachea removed. […] Tissues are washed with Kreb's buffer and stimulated using the previously determined sub-maximal voltage for 1 hour to establish a stable baseline contraction prior to assessment of compound activity.
A cumulative dose response curve (DRC) to each test substance is then performed and changes in smooth muscle contraction measured. The effect of each test substance in each experiment is expressed as a percentage inhibition of the baseline contraction, normalized to the relevant vehicle controls. […] The data from all three experiments are pooled, the DRC plotted, and the test substance potency and efficacy determined.

| EC50 [2] [nM] | SMILES | pulmonary vasodilation [1] | effect on mean arterial pressure [1] | transpulmonary cGMP release [1] | also measured |
| --- | --- | --- | --- | --- | --- |
| – | Nc1nc(-c2nn(Cc3ccccc3F)c3ncccc23)ncc1C1CC1 [BAY 41-2272] | dose dependent pulmonary vasodilation | without significant effect | increased transpulmonary cGMP release | – |
| – | Nc1nc(-c2nn(Cc3ccccc3F)c3ncccc23)nc(N)c1N1CCOCC1 [BAY 41-8543] | dose dependent pulmonary vasodilation | without significant effect | increased transpulmonary cGMP release | systemic arterial oxygenation [1]: increased systemic arterial oxygenation |
| – | O=C(O)CCCCN(CCc1ccccc1OCc1ccc(CCc2ccccc2)cc1)Cc1ccc(C(=O)O)cc1 [BAY 58-2667] | dose dependent pulmonary vasodilation | without significant effect | increased transpulmonary cGMP release | systemic arterial oxygenation [1]: increased systemic arterial oxygenation |
| – | O=C(O)CCCCN(CCc1cc(F)ccc1OCc1ccc(-c2ccc(C(F)(F)F)cc2)cc1)Cc1ccc(C(=O)O)cc1 [BAY 60-2770] | – | – | – | effect on overactive bladder (obese mice): ameliorates overactive bladder |
| > 1000 | COCc1cc(-c2nc(N)c3c(n2)NC(=O)C3(C)C(N)=O)nn1Cc1ccccc1F (stereo not shown) [Compound I-22] | – | – | – | – |
| 100 to 1000 | COc1cc(-c2nc(N)c3c(n2)NC(=O)C3(C)C)nn1Cc1ccccc1F [Compound I-23] | – | – | – | – |
| > 1000 | Cc1cc(-c2nc(N)c3c(n2)NC(=O)C3(C)C)nn1Cc1ccccc1F [Compound I-71, 4-amino-2-(1-(2-fluorobenzyl)-5-methyl-1H-pyrazol-3-yl)-5,5-dimethyl-5H-pyrrolo[2,3-d]pyrimidin-6(7H)-one] | – | – | – | EC50 (sGC enzyme): 100 to 1000 nM |
| > 1000 | Cc1cc(-c2ncc3c(n2)NC(=O)C3(C)C)nn1Cc1ccccc1F [Compound I-72] | – | – | – | EC50 (sGC enzyme): < 100 nM and 100 to 1000 nM |
| – | CC(C)[N+]1(C)[C@@H]2CC[C@H]1CC(OC(=O)C(CO)c1ccccc1)C2 (stereo partly shown) [Ipratropium bromide] | – | – | – | IC50 [3]: 0.00086 µM |
